Experimental data from patent US8987256B2, “Oxo-heterocyclic substituted carboxylic acid derivatives and the use thereof” (Bayer Intellectual Property GmbH, priority 2008, dated 2015).
pEC50, pIC50: −log10 of the molar value.

Experiments:
[1] = target: T1, recombinant guanylate cyclase reporter cell line (Rattus norvegicus, UniProt P20595); assay: sGC-activating activity in the CHO reporter cell in vitro; assay type: cell-based
T1 construct: expressed in transfected cells; host or cells: CHO reporter cell line
T1 sequence (P20595 1-619): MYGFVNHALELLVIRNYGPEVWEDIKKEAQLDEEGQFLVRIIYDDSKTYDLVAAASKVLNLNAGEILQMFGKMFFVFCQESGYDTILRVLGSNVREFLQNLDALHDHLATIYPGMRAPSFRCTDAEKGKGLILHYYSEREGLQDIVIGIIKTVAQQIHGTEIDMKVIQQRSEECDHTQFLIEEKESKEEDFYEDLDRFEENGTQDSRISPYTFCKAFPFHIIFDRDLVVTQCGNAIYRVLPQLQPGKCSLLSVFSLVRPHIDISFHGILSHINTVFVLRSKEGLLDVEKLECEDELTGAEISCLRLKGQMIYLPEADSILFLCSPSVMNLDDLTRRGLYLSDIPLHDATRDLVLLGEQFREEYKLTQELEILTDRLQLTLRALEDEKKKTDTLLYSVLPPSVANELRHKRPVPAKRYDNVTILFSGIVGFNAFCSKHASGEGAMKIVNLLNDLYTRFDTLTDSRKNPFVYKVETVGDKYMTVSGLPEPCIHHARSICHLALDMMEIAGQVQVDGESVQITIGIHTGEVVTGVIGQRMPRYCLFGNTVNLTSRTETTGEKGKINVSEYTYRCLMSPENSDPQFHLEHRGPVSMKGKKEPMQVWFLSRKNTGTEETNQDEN
T1 sequence (P19686 1-690 partner): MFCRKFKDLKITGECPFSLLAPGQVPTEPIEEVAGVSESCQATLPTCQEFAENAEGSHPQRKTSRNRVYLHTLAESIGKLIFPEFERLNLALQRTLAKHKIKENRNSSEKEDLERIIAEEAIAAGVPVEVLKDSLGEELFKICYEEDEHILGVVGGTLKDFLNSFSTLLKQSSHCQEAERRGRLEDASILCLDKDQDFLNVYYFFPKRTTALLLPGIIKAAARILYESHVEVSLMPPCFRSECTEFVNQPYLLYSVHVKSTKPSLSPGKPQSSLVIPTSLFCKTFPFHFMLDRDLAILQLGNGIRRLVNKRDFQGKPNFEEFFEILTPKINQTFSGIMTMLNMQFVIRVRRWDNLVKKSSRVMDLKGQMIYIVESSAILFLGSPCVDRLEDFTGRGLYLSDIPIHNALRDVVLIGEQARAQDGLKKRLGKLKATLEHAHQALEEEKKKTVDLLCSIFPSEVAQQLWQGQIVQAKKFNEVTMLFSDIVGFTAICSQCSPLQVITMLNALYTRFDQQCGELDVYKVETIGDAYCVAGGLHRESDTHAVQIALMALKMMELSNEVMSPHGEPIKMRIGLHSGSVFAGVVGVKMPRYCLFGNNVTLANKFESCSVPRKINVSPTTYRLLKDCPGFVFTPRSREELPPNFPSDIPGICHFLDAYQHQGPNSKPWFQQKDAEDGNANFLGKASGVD
Protocol: The cellular action of the compounds according to the invention is determined at a recombinant guanylate cyclase reporter cell line, as described in F. Wunder et al., Anal. Biochem. 339, 104-112 (2005).

saphenous artery rings = assay: Vasorelaxant effect in vitro (phenylephrine-contracted artery rings); design: species or system Rabbits; conditions: Oryctolagus cuniculus, concentration reducing phenylephrine-induced contraction by 50%
Protocol: Rabbits are anesthetized and sacrificed by intravenous injection of thiopental sodium (about 50 mg/kg) and exsanguinated. The saphenous artery is removed and divided into rings 3 mm wide. The rings are mounted singly on in each case a pair of triangular hooks open at the end and made of 0.3 mm-thick special wire (Remanium®). Each ring is placed under an initial tension in 5 ml organ baths with Krebs-Henseleit solution which is at 37° C., is gassed with carbogen and has the following composition: NaCl 119 mM; KCl 4.8 mM; CaCl2×2H2O 1 mM; MgSO4×7H2O 1.4 mM; KH2PO4 1.2 mM; NaHCO3 25 mM; glucose 10 mM; bovine serum albumin 0.001%. The force of contraction is detected with Statham UC2 cells, amplified and digitized via A/D converters (DAS-1802 HC, Keithley Instruments, Munich) and recorded in parallel on chart recorders. Contractions are induced by addition of phenylephrine.
After several (generally 4) control cycles, the substance to be investigated is added in each further run in increasing dosage, and the level of the contraction achieved under the influence of the test substance is compared with the level of the contraction reached in the last preceding run. The concentration necessary to reduce the contraction reached in the preceding control by 50% is calculated from this (IC50). The standard application volume is 5 μl. The proportion of DMSO in the bath solution corresponds to 0.1%.

[2] = target: T2, soluble guanylate cyclase (sGC) (Rattus norvegicus, UniProt P20595); assay: Activating action at the sGC enzyme in vitro (PPi detection, luciferase); assay type: biochemical; conditions: for pEC50: read-out: EC50 (concentration at 50% of maximum efficacy), activating action at the sGC enzyme
T2 construct: made in house; host or cells: baculovirus/Sf9 insect cells
T2 sequence (P20595 1-619): T1 sequence (P20595 1-619)
T2 sequence (P19686 1-690 partner): T1 sequence (P19686 1-690 partner)
Protocol: Soluble guanylate cyclase (sGC) converts on stimulation GTP into cGMP and pyrophosphate (PPi). PPi is detected with the aid of the assay described below. The signal produced in the assay increases as the reaction progresses and serves as a measure of the sGC enzyme activity under the given stimulation.
To carry out the assay, 29 μl of enzyme solution [0-10 nM soluble guanylate cyclase (prepared according to Honicka et al., J. Mol. Med. 77, 14-23 (1999)) in 50 mM TEA, 2 mM MgCl2, 0.1% BSA (fraction V), 0.005% Brij®, pH 7.5] are initially introduced into a microplate, and 1 μl of the substance to be tested (as a serially diluted solution in DMSO) is added. The mixture is incubated at room temperature for 10 min. Then 20 μl of detection mix [1.2 nM Firefly Luciferase (Photinus pyralis luciferase, Promega), 29 μM dehydroluciferin (prepared according to Bitler & McElroy, Arch. Biochem. Biophys. 72, 358 (1957)), 122 μM luciferin (Promega), 153 μM ATP (Sigma) and 0.4 mM DTT (Sigma) in 50 mM TEA, 2 mM MgCl2, 0.1% BSA (fraction V), 0.005% Brij®, pH 7.5] are added. The enzyme reaction is started by adding 20 μl of substrate solution [1.25 mM guanosine 5′-triphosphate (Sigma) in 50 mM TEA, 2 mM MgCl2, 0.1% BSA (fraction V), 0.005% Brij®, pH 7.5] and measured continuously in a luminometer. The extent of the stimulation by the substance to be tested can be determined relative to the signal of the unstimulated reaction.
The activation of heme-free guanylate cyclase is examined by addition of 25 μM of 1H-1,2,4-oxadiazolo[4,3-a]quinoxalin-1-one (ODQ) to the enzyme solution and subsequent incubation for 30 minutes and compared to the stimulation of the native enzyme.

| SMILES | MEC (minimum effective concentration), sGC-activating activity in the CHO reporter cell [1] [nM] | pIC50 (saphenous artery rings) | MEC (minimum effective concentration), activating action at the sGC enzyme [2] [nM] | pEC50 [2] |
| --- | --- | --- | --- | --- |
| CC1(C(=O)O)Cc2cccc(NC(=O)C(c3ccc(CN4N=C(c5ccccc5)OCC4=O)cc3)C3CCCC3)c2C1 (single isomer, unassigned) [Example 46, 4-[(Cyclopentyl{4-[(5-oxo-2-phenyl-5,6-dihydro-4H-1,3,4-oxadiazin-4-yl)methyl]phenyl}-acetyl)amino]-2-methyl-2,3-dihydro-1H-indene-2-carboxylic acid] | 3 | 6.96 | 4.1 | 6.89 |
| CCC(C)C(C(=O)Nc1cccc(CCC(=O)O)c1C)c1ccc(CN2N=C(c3ccccc3)OCC2=O)cc1 (single isomer, unassigned) [Example 77, 3-{2-Methyl-3-[(3-methyl-2-{4-[(5-oxo-2-phenyl-5,6-dihydro-4H-1,3,4-oxadiazin-4-yl)methyl]phenyl}pentanoyl)amino]phenyl}propanoic acid] | 1 | 6.20 | 0.4 | 7.62 |
| CCC(C)C(C(=O)Nc1cccc2c1CC(C)(C(=O)O)C2)c1ccc(CN2N=C(c3ccccc3)OCC2=O)cc1 (single isomer, unassigned) [Example 86, 2-Methyl-4-[(3-methyl-2-{4-[(5-oxo-2-phenyl-5,6-dihydro-4H-1,3,4-oxadiazin-4-yl)methyl]-phenyl}pentanoyl)amino]-2,3-dihydro-1H-indene-2-carboxylic acid] | 1 | 6.74 | 1.4 | 7.14 |
| Cc1c(CCC(=O)O)cccc1NC(=O)C(c1ccc(CN2N=C(c3ccccc3)OCC2=O)cc1)C1CCCC1 (single isomer, unassigned) [Example 115, 3-{3-[(cyclopcntyl{4-[(5-oxo-2-phcnyl-5,6-dihydro-4H-1,3,4-oxadiazin-4-yl)mcthyl]phcnyl}acetyl)amino]-2-mcthylphcnyl}propanoic acid] | 3 | 6.79 | 1.6 | 7.40 |
| O=C(O)C1Cc2cccc(NC(=O)C(c3ccc(CN4N=C(c5ccccc5)OCC4=O)cc3)C3CCCC3)c2C1 (single isomer, unassigned) [Example 126, 4-[(cyclopcntyl{4-[(5-oxo-2-phcnyl-5,6-dihydro-4H-1,3,4-oxadiazin-4-yl)mcthyl]phcnyl}acetyl)amino]-2,3-dihydro-1H-indenc-2-carboxylic acid] | 30 | 6.84 | 10 | 6.49 |
| CC(C)(Cc1cccc(NC(=O)C(c2ccc(Cn3nc(-c4ccccc4)ccc3=O)cc2)C2CCCC2)c1)C(=O)O (single isomer, unassigned) [Example 138, 3-{3-[(cyclopentyl{4-[(6-oxo-3-phenylpyridazin-1(6H)-yl)methyl]phenyl}acetyl)amino]phenyl}-2,2-dimethylpropanoic acid] | 10 | 7.28 | 5.1 | 6.48 |
| CC(C(C(=O)Nc1cc(CCC(=O)O)ccc1F)c1ccc(CN2N=C(c3ccccc3)OCC2=O)cc1)C(F)(F)F (centres unmarked) [Example 185, 3-{4-fluoro-3-[(4,4,4-trifluoro-3-methyl-2-{4-[(5-oxo-2-phenyl-5,6-dihydro-4H-1,3,4-oxadiazin-4-yl)methyl]-phenyl}butanoyl)amino]phenyl}propanoic acid] | 0.3 | 7.19 | – | – |
